Data published in patent US20230104487A1, “11-(4-CHLOROPHENYL)-4-(2,3-DIHYDRO-1H-INDOLE-1-CARBONYL)-3,11-DIMETHYL-5,10,DIOXATRICYCLO[7.4.0.0,2,6,]TRIDECA-1,3,6,8-TETRAEN-13-ONE AND DERIVATIVES AS DESTABILIZER OF CRY1 FOR THE TREATMENT OF CIRCADIAN RHYTHM ASSOCIATED DISEASES AND DISORDERS” (KOC UNIVERSITESI, priority 2019, published 2023).
“Also recorded” adds a separate entry of the source.

How the values were obtained:
[1] = test system: CRY2; test: Protein immunoblot, synchronized U2-OS cells, CRY2; assay type: cell-based, human; conditions: 10 μM, 80-92 h
Method: FIGS. 3A-3G are an illustration of FORMULA I decreased CRY1 level in synchronized U2-OS cells. Confluent U2-OS cells were synchronized by 2 h treatment with dexamethasone ([…]) and medium replaced with fresh medium containing FORMULA I or solvent (DMSO final 0.5%). Cells were harvested at indicated time points. FIGS. 3A-3B show lysed cells were analyzed via protein immunoblot technique. […] CRY levels in DMSO control divided by that of in FORMULA I treated samples were reported (mean±SEM, n=4). FIGS. 3C-3G show cells were subjected to reverse-transcription-quantitative polymerase chain reaction (RT-qPCR). […] Expression level of genes was normalized according to the expression level of that gene at 72ndh. (Data represent the mean±SEM, n=3 with duplicates ***: p<0.001 **: p<0.005, *: p<0.05 versus DMSO control by two-way ANOVA).
Cells were lysed in RIPA buffer (50 mM Tris, 150 mM NaCl, 1% Triton-X, 0.1% SDS) with fresh Protease inhibitor cocktail (PIC). After centrifugation at 13000 rpm for 15 minutes at 4° C., supernatant was used to determine the protein amount using Pierce Protein Assay (Thermo Scientific) according to the manufacturer's instruction. Mice liver samples were homogenized and lysed with Dounce homogenizer and RIPA buffer. […] ECL buffer system (Advansta WesternBright) was used to visualize HRP chemi-luminescence via BioRad ChemiDoc Touch visualizer. […]

[2] = test system: U2-OS Bmal1-dLuc cells; test: Real-time monitoring of circadian rhythm, U2-OS Bmal1-dLuc; assay type: cell-based, human
Method: This assay was performed with two different equipment: Synergy H1 (BioTek) with 96-well plate and LumiCycle luminometer (Actimetrics) with 35 mm plates. Initial screening of molecules to determine their effect on the circadian period was performed in 96-well plate via Synergy H1. Clear 35-mm plates are used in LumiCycle luminometer which provides high resolution data describing the circadian oscillation. For 96-plate tests, 50000 U2-OS Bmal1-dLuc cells were seeded on an opaque 96-well plate and cultured overnight. Next day cells were reset by adding dexamethasone (DXM) ([…] final) for 2 h. Then medium is changed to bioluminescence recording media which contains the following in 1 L: DMEM powder (sigma D-2902, 10×1 L), 0.35 gr sodium bi-carbonate (tissue culture grade, sigma S5761), 3.5 gr D (+) glucose powder (tissue culture grade, sigma G7021), 10 mL 1M HEPES buffer (Gibco 15140-122), 2.5 mL Pen/Strep (100 ug/ml), 50 mL 5% FBS and up to 1 L sterile milliQ water. Luciferin is added freshly with 0.1 mM final concentration. Molecules were added to the bioluminescence recording media at desired concentration (0.5% final DMSO concentration). Plates were sealed with optically clear film to prevent evaporation and gas exchange thereby to maintain homeostasis of the cells.
Luminescence values were recorded at 32° C. for each 30 minutes with 15 seconds integration time via Synergy H1 luminometer for a week. For LumiCycle, 400×10^3 U2-OS Bmal1-dLuc or NIH3T3 mPer2-dLuc cells were seeded to 35 mm plates and then procedure given above was followed with a change in the last step. Plates were sealed with vacuum grease and placed to LumiCycle. Each plate was recorded continuously every 10 minutes for 70 seconds at 37° C. via photomultiplier tubes. Period and amplitude data were obtained from LumiCycle Analysis software. To detect the effect of FORMULA I in the absence of CRYs, Cry1^−/−/Cry2^−/− mouse embryonic fibroblasts (CRYDKO MEFs) transiently transfected with pGL3-Per2-Luc (luciferase reporter) were used. 3×10^5 CRYDKO cells were seeded in 35 mm clear plates. Next day, cells were transfected with 4000 ng pGL3-Per2-Luc via Fugene6 transfection reagent according to the manufacturer's instruction. In short, 3:1 ratio of Fugene6 in μl against transfected DNA amount in μg was kept in transfections. 72 h after transfection cells were synchronized with DXM for two hours. Then, medium was changed with lumicycle medium having DMSO or molecule, sealed with vacuum grease, and placed to LumiCycle.

Structure (SMILES): Cc1c(C(=O)N2CCc3ccccc32)oc2ccc3c(c12)C(=O)CC(C)(c1ccc(Cl)cc1)O3 (centres unmarked) [FORMULA I, 11-(4-chlorophenyl)-4-(2,3-dihydro-1H-indole-1-carbonyl)-3,11-dimethyl-5,10,dioxatricyclo[7.4.0.0,2,6,]trideca-1,3,6,8-tetraen-13-one]
- CRY2 protein level [1]: increased CRY2 levels; also recorded: increased the level of CRY2
- EC50 ([2]; Homo sapiens, U2OS, U2-OS Bmal1-dLuc, read-out: EC50 of period lengthening and rhythm dampening): ~6.5 µM
- activity / dose responsive effect on circadian rhythm ([2]; U2-OS Bmal1-dLuc): showed the best dose responsive effect
- effect on amplitude of the rhythm ([2]; dose-dependent): dampened the rhythm
- effect on period of circadian rhythm ([2]; dose-dependent): significantly lengthened the period; also recorded: lengthened the circadian rhythm dose dependently
